Results on 24 compounds are retold here after PubChem BioAssay (NCI).

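Each compound was tested at five concentrations against cells in 96-well plates for 48 hours. GI50 marks 50% less growth. Definition used: TGI = concentration required for complete inhibition of growth.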

What all share (assay): NCI-60 cell line screen, 48 h
Test [1] has as its system CAKI-1 renal.
Test [2] has as its system SK-MEL-5 melanoma.
Test [3] has as its system KM12 colon.
Test [4] relates to SR leukemia.
Test [5] has as its system TK-10 renal.
Test [6] deals with T-47D breast.
For test [7], the system named is SW-620 colon.
For test [8], the system named is K-562 leukemia.
Test [9] has as its system RPMI-8226 leukemia.
In test [10] the test system is HOP-62 NSCLC.

Take `CCNc1cc2c3c(c1)CCN3CCC2`: the TGI in [1], in test [2], in test [3], in test [4], in test [5] and in test [6] was over 10 µM throughout. The TGI in test [7] was over 10 µM; in test [8], 5.05 µM; in [9] it was over 10 µM; in test [10], over 10 µM.
Consider `Cc1ccccc1NC(=O)CC(=O)NNC(Sc1ccccc1)c1cc(N=Nc2ccc(Br)cc2)ccc1O` (stereo not given), for which the TGI was over 10 µM in [1]; 3.42 µM in test [2]; over 10 µM in test [3]; 4.07 µM in [4]; over 10 µM in test [5]; over 10 µM in test [6]. In addition, the TGI in test [7] is over 10 µM; in [8], 7.56 µM; in test [9] it was 9.06 µM; in test [10], over 10 µM.
Turning to `Cc1cc(S(=O)(=O)/N=C(/NN)Nc2ccc(Cl)cc2)c(S)cc1Cl`, the TGI in test [1] was 54.3 µM; in test [2], 19.2 µM; in test [3], 19.3 µM; in [4] it was over 100 µM; in test [5] it was 65.3 µM; in [6], 14.8 µM. In addition, the TGI is 35.9 µM in [7], over 100 µM in test [8], over 100 µM in [9] and 28 µM in [10].
Regarding `COc1ccccc1C1C(C#N)=C(N)Oc2n[nH]c(C)c21` (stereo not given), the GI50 is over 100 µM in [1]; 59 µM in test [2]; over 100 µM in test [3]; 37.8 µM in [4]; over 100 µM in [5]; over 100 µM in test [6]. In addition, the GI50 in [7] was over 100 µM; in test [8], over 100 µM; in test [9], 10.5 µM; in [10] it was over 100 µM. Also, the TGI in test [1], in test [2], in [3], in test [4], in test [5] and in [6] was over 100 µM each time. For the same compound, the TGI was over 100 µM in test [7], over 100 µM in test [8], 29.6 µM in test [9] and over 100 µM in test [10].
For the compound `CC1CCC2(OC1)OC1C(O)C3C4CCC5CC(OC6OC(CO)C(OC7OC(CO)C(O)C(OC8OCC(O)C(O)C8O)C7OC7OC(CO)C(O)C(OC8OC(CO)C(O)C(O)C8O)C7O)C(O)C6O)C(O)CC5(C)C4CCC3(C)C1C2C` (stereo not given), the TGI in test [1] stood at 2.68 µM; in [2], 15.9 µM; in test [3], 4.77 µM; in test [4], 18.8 µM; in test [5], 6.1 µM; in [6] it was 10.4 µM. The TGI in [7] is 98.4 µM; in test [8], over 100 µM; in [9], 9.28 µM; in test [10] it was 3.92 µM.
As to `CCOC1=C(c2ccccc2)N2CCCCC2O1` (stereo not given), the TGI in [1] is over 84.2 µM; in [2], 4.54 µM; in [3], 14 µM; in test [4] it was over 31.6 µM; in test [5], over 38.6 µM; in [6], 6.82 µM. Also, the TGI in test [7] is 36.4 µM; in test [8], over 47.5 µM; in test [9], over 24 µM; in test [10], 17.6 µM.
For the compound `C#CCOC(=O)c1ccc(OC(C)=O)cc1`, the TGI in test [1], in test [2], in test [3], in test [4], in [5] and in test [6] was over 100 µM throughout. Further, the TGI in [7], in test [8], in test [9] and in test [10] was over 100 µM throughout.
Regarding `O=C(Nc1nn[nH]n1)c1nc(-c2ccccc2)cc(=O)[nH]1`, the TGI in test [1], in test [2], in [3], in test [4], in [5] and in test [6] was over 100 µM each time. In addition, the TGI in [7], in [8], in test [9] and in test [10] was over 100 µM in each case.
As to `Clc1cc(Cl)ncn1`, the TGI in [1], in test [2], in [3], in test [4], in [5] and in test [6] was over 100 µM throughout. For the same compound, the TGI in test [7], in [8], in test [9] and in test [10] was over 100 µM throughout.
Regarding `N#Cc1c(N)nc2c3c1NC(=O)C(C(N)=O)C3c1ccccc1O2` (stereo not given), the TGI in test [1], in test [2], in test [3], in test [4], in test [5] and in test [6] was over 100 µM throughout. Also, the TGI in test [7], in test [8], in [9] and in [10] was over 100 µM throughout.
With `CC(C)(C)OC(=O)c1ccc(NCC2=C(Br)C(=O)C=CC2=O)cc1`, the TGI in test [1] is 26.8 µM; in [2], 41.6 µM; in test [3] it was over 100 µM; in test [4], 79.7 µM; in test [5], 48.2 µM; in test [6], 41.4 µM. The TGI in test [7] is 34.9 µM; in test [8], over 58 µM; in test [9], over 100 µM; in test [10], over 100 µM.
For `CC1=CCC[C@H]2[C@](C)(CC3=CC(=O)C(SCC(C)C)=CC3=O)[C@@H](C)CC[C@]12C`, the TGI came out at 16.7 µM in [1]; 31.5 µM in test [2]; 28 µM in [3]; 59 µM in [4]; 31.3 µM in test [5]; 12.9 µM in test [6]. Moreover, the TGI in test [7] is 51.7 µM; in test [8], 30.8 µM; in test [9], 14.3 µM; in test [10], 31 µM.
`CC(C)=CCC[C@@H](C)C1=C(O)C(Nc2ccccc2I)=C(C)C(=O)C1=O`: the TGI in test [1] is 41.3 µM; in test [2] it was 23 µM; in [3], 19.7 µM; in [4], 21.4 µM; in test [5], over 75 µM; in test [6], 47.5 µM. Also, the TGI in test [7] is over 75 µM; in test [8], over 66.8 µM; in test [9], over 36.8 µM; in test [10], 23.1 µM.
Regarding `O=C(O)c1ccccc1C1c2ccccc2Oc2ccccc21`, the TGI in [1], in test [2], in test [3], in test [4], in [5] and in test [6] was over 100 µM each time. Moreover, the TGI in test [7], in [8], in test [9] and in [10] was over 100 µM throughout.
Consider `O=[Se](O)O`, for which the TGI in test [1] is 97.1 µM; in test [2], 8.68 µM; in test [3], over 64.6 µM; in test [4] it was over 28.6 µM; in test [5] it was over 100 µM; in test [6], over 62.9 µM. For the same compound, the TGI in test [7] was over 100 µM; in [8], over 100 µM; in [9], over 100 µM; in test [10], 1.95 µM.
On to `CC1(C)CC[C@]2(C(=O)O)CC[C@]3(C)[C@H](C(=O)C=C4[C@@]5(C)C=C(C#N)C(=O)C(C)(C)[C@@H]5CC[C@]43C)[C@@H]2C1`, for which the TGI in test [1] was 3.46 µM; in [2], 1.69 µM; in test [3], 1.61 µM; in test [4] it was 2.06 µM; in test [5] it was 2.02 µM; in [6] it was 4.34 µM. The TGI turned out to be 2.42 µM in test [7], 27.1 µM in [8], 1.19 µM in test [9] and 3.28 µM in test [10].
Regarding `COC1=CC(=O)N(C)C(O)C1(C#N)OC1OC(CO)C(O)C(O)C1O` (stereo not given), the TGI in test [1], in test [2], in test [3], in test [4], in test [5] and in test [6] was over 100 µM throughout. In addition, the TGI in test [7] is over 100 µM; in [8], over 10 µM; in test [9] it was over 100 µM; in [10] it was over 100 µM.
In the case of `CC(=O)OC[C@H]1On2nnnc2[C@H](OC(C)=O)[C@@H](OC(C)=O)[C@@H]1OC(C)=O`, the TGI in test [1], in test [2], in test [3], in test [4], in test [5] and in [6] was over 100 µM in each case. The TGI in [7], in [8], in test [9] and in [10] was over 100 µM in each case.
In the case of `NCCSCCC(=O)O`, the TGI is over 100 µM in [1]; over 85.3 µM in test [2]; over 100 µM in [3]; over 83.9 µM in [4]; over 100 µM in test [5]; over 84.2 µM in [6]. Besides, the TGI in test [7] was over 100 µM; in test [8], over 100 µM; in test [9] it was over 92.3 µM; in [10], over 100 µM.
On to `O=c1[nH]nc(Cc2ccc(Cl)cc2)n1/N=C/c1ccc([N+](=O)[O-])o1`, for which the TGI in [1] is over 39 µM; in test [2] it was over 38.5 µM; in test [3], 6.59 µM; in [4] it was 7.55 µM; in [5], 18.5 µM; in test [6] it was over 77.6 µM. Besides, the TGI in test [7] was over 21.6 µM; in test [8], over 31 µM; in test [9], 6.48 µM; in test [10] it was 24.8 µM.
With `Cc1ncc(COP(=O)(O)O)c(/C=C2\SC(=S)NC2=O)c1O`, the TGI in test [1], in test [2], in [3], in test [4], in test [5] and in test [6] was over 100 µM in each case. Further, the TGI in [7], in test [8], in test [9] and in test [10] was over 100 µM in each case.
As for `CCSC1=CC2(O)N(CCc3ccc(OC)c(OC)c3)C(=O)CC2(C(=O)OC)CC1=O` (stereo not given), the TGI in [1] is over 100 µM; in test [2], over 100 µM; in test [3], 33.4 µM; in test [4], 58.6 µM; in test [5], 37.5 µM; in test [6], 48.5 µM. For the same compound, the TGI in test [7] was 59 µM; in test [8], over 100 µM; in test [9], 91.3 µM; in test [10] it was 34.7 µM.
Turning to `NC(N)=NC1C(O)C(O)C(O)C(N=C(N)N)C1O` (stereo not given), the TGI in [1], in test [2], in test [3], in test [4], in test [5] and in test [6] was over 100 µM throughout. Also, the TGI in [7], in test [8], in [9] and in test [10] was over 100 µM in each case.
Take `COc1cc2nc(-c3cccs3)nc(Nc3cccc(Cl)c3)c2cc1OC`: the TGI in test [1] was over 100 µM; in test [2], over 100 µM; in [3], over 100 µM; in [4], over 100 µM; in test [5] it was 25.3 µM; in test [6], over 100 µM. Also, the TGI is over 100 µM in test [7], over 100 µM in [8], over 100 µM in test [9] and 45.3 µM in test [10].
